# No end group written: not given here.
# Experiments:
# Type in all cases: in vivo, rat
# C5aR = assay: Whole brain C5aR expression, Western blotting and immunofluorescence; details: NT versus PIC1-treated groups
# Procedure: (§1) After blocking for one hour at room temperature, tissues were incubated with 1:300 goat anti-Iba1 (Abcam), 1:250 goat anti-GFAP (Abcam), 1:500 chicken anti-NeuN (Millipore, Billerica, Mass.), or 1:100 mouse anti-NeuN (Millipore) in host appropriate blocking serum overnight at 4° C. Primary antibodies were probed with 1:500 donkey anti-goat (Abcam), goat anti-chicken (Abcam), or goat anti-mouse (Abcam) AF 488 or 568 in appropriate blocking serum for one hour at room temperature. Tissues were blocked a second time with NGS for one hour at room temperature. Samples were then probed with 1:300 mouse anti-C1q (Abcam), 1:300 rabbit anti-C9, 1:50 rabbit anti-MPO (Abcam), 1:200 rabbit anti-TMEM (Novus Bio, Centennial, Colo.), 1:100 rabbit anti-C3aR (Bioss), 1:100 Mouse anti-C5aR (Hycult), or 1:200 chicken anti-C3/C3a (Abcam) in NGS overnight at 4° C. and then with 1:500 goat anti-mouse, rabbit, or chicken (Abcam) AF 488 or 568 in NGS for one hour at room temperature.
# Without wishing to be bound by theory, C3a is generated at the convergence of all known complement activation pathways (i.e., the classical, alternate and lectin pathways). To investigate further, C3aR levels in the brain were measured by Western blotting and immunofluorescence (FIG. 5). Western blotting was performed as follows. […]
# C3 = assay: Immunofluorescence quantification of C3 in brain; details: ipsilateral cortex and hippocampus, 48 hours, versus NT, P<0.05
# Procedure: (§2) TUNEL/C1q staining was performed as follows. Five (5) μm paraffin-embedded coronal brain sections on slides were incubated (1 hour; 60° C.), deparaffinized with xylene, and rehydrated with ethanol (100%, 95%, 70%; RT). Endogenous peroxidase activity was blocked (0.3% H2O2/MeOH; 10 minutes; RT), and heat induced antigen retrieval was performed (when indicated) using 10 mM sodium citrate, pH 6.0. 10% normal serum (from the same species as the host of the secondary antibody) was used to block and to dilute antibodies. Samples were washed twice for 10 min each, in PBST between each step.
# After blocking for one hour at room temperature, tissues were incubated with 1:300 goat anti-Iba1 (Abcam), 1:250 goat anti-GFAP (Abcam), 1:500 chicken anti-NeuN (Millipore, Billerica, Mass.), or 1:100 mouse anti-NeuN (Millipore) in host appropriate blocking serum overnight at 4° C. Primary antibodies were probed with 1:500 donkey anti-goat (Abcam), goat anti-chicken (Abcam), or goat anti-mouse (Abcam) AF 488 or 568 in appropriate blocking serum for one hour at room temperature. Tissues were blocked a second time with NGS for one hour at room temperature. […]
# MPO (Myeloperoxidase) = assay: Myeloperoxidase expression in cortex (oxidant stress); details: 48 hours after injury, versus NT animals, P<0.01
# Procedure: as §1
# To examine the effect of PIC1 treatment on oxidant stress, expression of the enzyme myeloperoxidase (MPO) was measured in the cortex of the brain. MPO is an enzyme from neutrophils that damages invading and host cells alike. MPO is one of the markers of oxidative stress after ischemic injury and is responsible for generating reactive oxygen species (hypochlorous acid and hydrogen peroxide). […]
# C1q = assay: CNS C1q level in whole cell brain lysate, fluorescent immunoassay; details: 8, 12 and 24 hours after initial insult, P<0.05
# Procedure: The local and systemic effects of NT, HT and PIC1 treatment on the complement cascade were measured. CNS C1q levels and systemic C1q and C5a levels were measured using a fluorescent immunoassay.
# CNS C1q levels were measured as follows. 150 μg of whole cell brain lysate in 1× PBS was added to the wells of a Costar high binding, black flat bottom 96-well polystyrene microplate (Corning, Steuben County, NY) and incubated overnight at 4° C. The plates were washed 3 times with 1× PBS-0.1% Tween 20 (PBST) and blocked with 10% normal donkey serum (NDS) for one hour. A 1:50 dilution of goat anti-human C1q (Complement Technology, Inc., Tyler, Tex.) in NDS was added into the wells and incubated for one hour at room temperature (RT). After washing, a 1:500 dilution of donkey anti-goat Alexa Fluor (AF) 488 (Life Technologies, Grand Island, N.Y.) in NDS was added, and incubated for one hour at RT. Wells were then washed and blocked with 10% normal goat serum (NGS) for one hour at RT. A 1:250 dilution of mouse anti-GAPDG (Abcam, Cambridge, UK) in NGS was added into the wells and incubated for one hour at RT. Wells were washed and a 1:500 dilution of goat anti-mouse AF 568 (Life Technologies, Grand Island, N.Y.) in NGS was added to incubate for one hour at RT. The wells were washed and the plate read using a Synergy HT (BioTek, Winooski, Vt.).
# [1] = tested on: neurons, microglia and astrocytes of ipsilateral cortex and hippocampus; assay: Immunofluorescence of neurons (NeuN), microglia (Iba1), astrocytes (GFAP) after HIE; details: P<0.05
# Procedure: as §2, §1
# Fluorescent images of the cortex were taken at 20× magnification using a digital camera (DP70, Olympus Center, Valley Forge, Pa.), mounted on a BX50 Olympus microscope. Adobe Photoshop CS5 was used to merge immunofluorescence images, and Image J (National Institutes of Health) was used for analysis.
# TMEM119 (microglia) = assay: TMEM119 and Iba1/TMEM119 staining of cortex; details: 48 hours after injury
# Procedure: as §1
# Accordingly, a more specific microglial marker was used to differentiate microglia from infiltrated peripheral macrophages. TMEM119 is a reliable microglial marker that discriminates resident microglia from blood-derived macrophages in the brain [21].
substance,measurement,setting,value
IALILEPICCQERAA-dPEG24 (cysteine pairing not given here) [PIC1],expression of C5aR,C5aR,no significant differences
same,C3 expression,C3,decreased expression
same,decrease of MPO expression in brain,MPO (Myeloperoxidase),83%
same,"whole brain C1q levels, NT animals relative to PIC1-treated animals",C1q,significantly higher
same,neuronal density,"[1]; 48 hours, versus NT and HT",higher neuronal density
same,astrogliosis,[1]; versus NT,reduced astrogliosis
same,microglial numbers and size,[1]; versus NT,reduced microglial numbers and size
same,combined Iba1/TMEM119 staining in the cortex,TMEM119 (microglia); versus NT and HT animals,almost two-fold decrease
same,TMEM119 expression in the cortex,TMEM119 (microglia); versus NT brains,almost a three-fold decrease

# From patent publication US20220249596A1, “PIC1 PEPTIDE COMPOSITIONS AND METHODS OF USE THEREOF FOR TREATMENT OF HYPOXIC ISCHEMIC ENCEPHALOPATHY” (REALTA HOLDINGS, LLC, priority 2019, published 2022)
